Results reported in patent US12264158B2, “Protein kinase MKK4 inhibitors for promoting liver regeneration or reducing or preventing hepatocyte death” (HEPAREGENIX GMBH, priority 2018, dated 2025).

How the values were obtained:
MEKK2 = target: T1, MEKK2 (Homo sapiens, UniProt Q9Y2U5); assay: Radiometric protein kinase assay, MEKK2; assay type: biochemical; details: substrate Casein, ATP 0.2 μM; read-out: MEKK2, potency derived from IC50-values
T1 construct: purchased ProQinase #0583-0000-1
T1 sequence (Q9Y2U5 1-619): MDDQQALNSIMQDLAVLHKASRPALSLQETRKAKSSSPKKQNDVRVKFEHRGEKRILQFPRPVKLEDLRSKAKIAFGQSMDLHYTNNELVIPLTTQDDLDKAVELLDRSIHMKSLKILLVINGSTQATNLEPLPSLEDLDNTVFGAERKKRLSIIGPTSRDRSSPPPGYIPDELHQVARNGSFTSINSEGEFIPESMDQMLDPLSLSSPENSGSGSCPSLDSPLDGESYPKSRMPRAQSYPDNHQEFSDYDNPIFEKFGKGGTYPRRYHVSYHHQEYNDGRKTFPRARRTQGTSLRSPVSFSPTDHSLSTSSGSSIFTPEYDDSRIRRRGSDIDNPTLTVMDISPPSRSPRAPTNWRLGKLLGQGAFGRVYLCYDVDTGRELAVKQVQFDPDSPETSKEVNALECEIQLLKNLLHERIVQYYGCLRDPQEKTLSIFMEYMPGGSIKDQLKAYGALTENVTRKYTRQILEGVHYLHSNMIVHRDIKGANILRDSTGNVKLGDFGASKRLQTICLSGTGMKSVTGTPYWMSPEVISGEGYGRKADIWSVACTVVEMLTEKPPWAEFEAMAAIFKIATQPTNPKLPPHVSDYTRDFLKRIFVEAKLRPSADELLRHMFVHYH
Protocol: (§1) A radiometric protein kinase assay was used for measuring the kinase activity of the respective protein kinases. All kinase assays were performed in 96-well polypropylene plates. After the reactions were stopped, the assay mixtures were transferred to 96-well MSFC filter-plates (Millipore). The reaction mix was passed through the filter membrane by aspiration, the membrane was washed 3 times with 150 mM H3PO4, once with ethanol, dried and liquid scintillation cocktail was added. Radioactivity was determined by counting of the samples in a Microbeta multiwell scintillation counter (Wallac).

BRaf = BRaf (Homo sapiens, UniProt P15056); assay: KINOMEscan competition binding assay, selectivity against off-target BRaf; details: concentration of 100 nM
Sequence of BRaf (P15056 whole entry): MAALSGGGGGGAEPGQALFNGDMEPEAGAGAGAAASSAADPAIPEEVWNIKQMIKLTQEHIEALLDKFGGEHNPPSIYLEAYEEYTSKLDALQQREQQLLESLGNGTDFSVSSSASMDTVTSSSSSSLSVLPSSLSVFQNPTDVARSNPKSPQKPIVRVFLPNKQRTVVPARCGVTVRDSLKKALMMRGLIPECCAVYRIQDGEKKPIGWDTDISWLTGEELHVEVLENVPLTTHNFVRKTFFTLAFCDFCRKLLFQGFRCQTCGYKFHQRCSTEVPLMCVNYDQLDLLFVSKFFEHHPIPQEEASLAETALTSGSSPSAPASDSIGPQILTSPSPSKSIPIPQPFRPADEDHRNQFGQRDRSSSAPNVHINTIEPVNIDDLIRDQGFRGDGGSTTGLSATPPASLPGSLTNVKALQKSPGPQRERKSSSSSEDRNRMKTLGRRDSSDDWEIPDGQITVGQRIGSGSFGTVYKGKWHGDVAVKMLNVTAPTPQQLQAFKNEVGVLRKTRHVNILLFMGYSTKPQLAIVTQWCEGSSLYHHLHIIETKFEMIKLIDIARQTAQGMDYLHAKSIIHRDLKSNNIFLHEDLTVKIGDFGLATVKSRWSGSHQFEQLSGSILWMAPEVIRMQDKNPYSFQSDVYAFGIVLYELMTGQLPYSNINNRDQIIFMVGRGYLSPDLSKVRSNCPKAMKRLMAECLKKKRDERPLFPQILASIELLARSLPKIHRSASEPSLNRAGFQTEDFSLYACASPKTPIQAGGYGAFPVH
Method in brief: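 Competition binding: test compound competes with an immobilized ligand for DNA-tagged BRaf, and kinase captured on the ligand is quantified by qPCR of the DNA tag. Compounds from 10 mM stocks were tested at the indicated final concentrations.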

MKK4 active = target: T2, MKK4 active (Homo sapiens, UniProt P45985); assay: Radiometric protein kinase assay, MKK4 active; assay type: biochemical; details: substrate JNK1 KRKR, ATP 0.2 μM, read-out: MKK4, potency derived from IC50-values
T2 construct: purchased ProQinase #0948-0000-1
T2 sequence (P45985 1-399): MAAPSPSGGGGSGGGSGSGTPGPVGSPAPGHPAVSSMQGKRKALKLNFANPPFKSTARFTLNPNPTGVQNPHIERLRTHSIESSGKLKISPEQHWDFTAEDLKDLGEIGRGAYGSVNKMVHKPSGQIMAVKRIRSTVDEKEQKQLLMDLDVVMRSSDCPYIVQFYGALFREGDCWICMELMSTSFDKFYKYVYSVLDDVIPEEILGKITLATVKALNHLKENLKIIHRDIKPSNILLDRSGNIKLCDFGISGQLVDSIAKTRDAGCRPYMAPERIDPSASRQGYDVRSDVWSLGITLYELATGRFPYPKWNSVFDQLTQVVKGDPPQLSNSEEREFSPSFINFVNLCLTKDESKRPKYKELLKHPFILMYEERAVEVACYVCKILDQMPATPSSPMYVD
Protocol: as §1

MKK4-MEKK2 mix = target: T3, MKK4-MEKK2 mix (Homo sapiens, UniProt P45985); assay: Radiometric protein kinase assay, MEKK2 dependent MKK4 activation (cascade); assay type: biochemical; details: substrate JNK1 KRKR, ATP 0.2 μM, read-out: Cascade, potency derived from IC50-values
T3 construct: MEKK2, recombinant, active: ProQinase product #0583-0000-1
T3 sequence (P45985 2-399): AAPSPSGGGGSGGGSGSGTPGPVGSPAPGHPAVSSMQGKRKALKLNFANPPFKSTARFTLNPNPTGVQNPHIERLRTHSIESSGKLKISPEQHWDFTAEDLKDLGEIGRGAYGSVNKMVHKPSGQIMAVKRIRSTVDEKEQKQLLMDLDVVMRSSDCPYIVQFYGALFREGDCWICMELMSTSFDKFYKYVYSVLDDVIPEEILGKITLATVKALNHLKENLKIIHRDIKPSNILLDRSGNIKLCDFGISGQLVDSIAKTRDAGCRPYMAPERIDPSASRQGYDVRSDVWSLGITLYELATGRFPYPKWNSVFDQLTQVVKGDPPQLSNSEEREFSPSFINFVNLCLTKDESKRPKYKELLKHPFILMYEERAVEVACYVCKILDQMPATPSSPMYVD
Protocol: The activation step is done in 50 mM HEPES pH 7.5, 50 mM NaCl, 3.8 mM MgCl2, 2.5 mM DTT, 10% (v/v) glycerol. Final DMSO concentration is 1%. The activation mixture is pipetted in the following order • 2.5 μl compound in 4% DMSO • 2.5 μl ATP/MgCl2 mix • 5 μl premixed kinase solution MKK4:MEKK2 10:1 (w/w)
Protein concentrations in the activation mix are 1 μM MKK4 and 50 nM MEKK2.
as §1

MKK7 = target: T4, MKK7 (Homo sapiens, UniProt O14733); assay: KINOMEscan competition binding assay, selectivity against off-target MKK7; details: concentration of 100 nM
T4 construct: M1/R419; host or cells: HEK-293
T4 sequence (O14733 1-419): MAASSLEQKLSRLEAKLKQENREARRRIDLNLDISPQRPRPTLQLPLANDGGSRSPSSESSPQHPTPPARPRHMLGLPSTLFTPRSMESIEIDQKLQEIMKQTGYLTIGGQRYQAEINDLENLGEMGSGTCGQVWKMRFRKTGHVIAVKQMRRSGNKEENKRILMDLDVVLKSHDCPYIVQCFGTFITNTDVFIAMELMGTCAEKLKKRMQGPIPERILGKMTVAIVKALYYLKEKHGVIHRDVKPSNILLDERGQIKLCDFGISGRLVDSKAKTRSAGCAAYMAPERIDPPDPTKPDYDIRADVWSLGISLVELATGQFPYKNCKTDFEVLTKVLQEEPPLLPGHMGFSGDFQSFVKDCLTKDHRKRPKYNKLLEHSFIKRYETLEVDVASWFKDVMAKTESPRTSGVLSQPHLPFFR
Method in brief: (§2)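 DNA-tagged kinases expressed in HEK-293 cells compete between test compound and immobilized ligand on blocked beads. Bound kinase is eluted and quantified by qPCR of the DNA tag. Compounds were tested at the indicated final concentrations, prepared from 10 mM stocks.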

JNK1 = target: T5, JNK1 (Homo sapiens, UniProt P45983); assay: KINOMEscan competition binding assay, selectivity against off-target JNK1; details: concentration of 100 nM
T5 construct: M1/Q384; host or cells: HEK-293
T5 sequence (P45983 1-384 isoform P45983-2): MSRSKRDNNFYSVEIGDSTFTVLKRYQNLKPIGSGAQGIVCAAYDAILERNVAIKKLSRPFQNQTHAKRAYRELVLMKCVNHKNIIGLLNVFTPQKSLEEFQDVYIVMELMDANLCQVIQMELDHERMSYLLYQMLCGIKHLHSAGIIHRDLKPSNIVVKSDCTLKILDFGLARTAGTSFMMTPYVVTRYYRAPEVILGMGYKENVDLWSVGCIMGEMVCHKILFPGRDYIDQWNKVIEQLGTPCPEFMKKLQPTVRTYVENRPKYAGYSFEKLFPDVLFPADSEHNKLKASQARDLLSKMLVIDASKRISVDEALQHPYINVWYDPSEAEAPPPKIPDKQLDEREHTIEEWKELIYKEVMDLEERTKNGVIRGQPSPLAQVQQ
Method in brief: as §2

MKK4 = target: T6, MKK4 (Homo sapiens, UniProt P45985); assay: KINOMEscan competition binding assay, MKK4 potency; details: concentration of 100 nM
T6 construct: S84/D399; host or cells: HEK-293
T6 sequence (P45985 84-399): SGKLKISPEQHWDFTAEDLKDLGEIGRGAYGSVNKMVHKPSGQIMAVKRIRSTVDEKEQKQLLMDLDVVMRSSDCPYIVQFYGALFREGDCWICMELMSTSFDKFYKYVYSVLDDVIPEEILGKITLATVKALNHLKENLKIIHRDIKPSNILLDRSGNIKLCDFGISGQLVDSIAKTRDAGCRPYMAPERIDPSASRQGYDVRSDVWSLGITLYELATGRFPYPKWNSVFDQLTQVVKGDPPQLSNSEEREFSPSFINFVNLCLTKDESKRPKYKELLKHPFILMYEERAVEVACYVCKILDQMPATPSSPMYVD
Method in brief: as §2

CCCS(=O)(=O)Nc1ccc(F)c(C(=O)c2n[nH]c3ncc(-c4ccccc4)cc23)c1F [Example 2, N-(2,4-difluoro-3-(5-phenyl-1H-pyrazolo[3,4-b]pyridine-3-carbonyl)phenyl)propane-1-sulfonamide]
IC50 (MEKK2): > 10 µM
Selectivity vs. BRaf, ratio PoC(BRaf)/PoC(MKK4) (BRaf): ++ (30 > PoC(BRaf)/PoC(MKK4) ≥ 10)
IC50 (MKK4 active): < 500 nM
IC50 (MKK4-MEKK2 mix): 1 to 10 µM
Selectivity vs. MKK7, ratio PoC(MKK7)/PoC(MKK4) (MKK7): +++ (PoC(MKK7)/PoC(MKK4) ≥ 30)
Selectivity vs. JNK1, ratio PoC(JNK1)/PoC(MKK4) (JNK1): ++ (30 > PoC(JNK1)/PoC(MKK4) ≥ 10)
MKK4, residual percent of control binding (PoC) (MKK4): ++ (1 ≤ PoC < 10)

CCCS(=O)(=O)Nc1ccc(F)c(C(=O)c2n[nH]c3ncc(-c4ccc(N(C)C)cc4)cc23)c1F [Example 8, N-(3-(5-(4-(dimethylamino)-phenyl)-1H-pyrazolo[3,4-b]pyridine-3-carbonyl)-2,4-difluorophenyl)-propane-1-sulfonamide]
IC50 (MEKK2): > 10 µM
Selectivity vs. BRaf, ratio PoC(BRaf)/PoC(MKK4) (BRaf): O (PoC(BRaf)/PoC(MKK4) < 3)
IC50 (MKK4 active): 1000 to 10000 nM
IC50 (MKK4-MEKK2 mix): > 10 µM
Selectivity vs. MKK7, ratio PoC(MKK7)/PoC(MKK4) (MKK7): +++ (PoC(MKK7)/PoC(MKK4) ≥ 30)
Selectivity vs. JNK1, ratio PoC(JNK1)/PoC(MKK4) (JNK1): +++ (PoC(JNK1)/PoC(MKK4) ≥ 30)
MKK4, residual percent of control binding (PoC) (MKK4): ++ (1 ≤ PoC < 10)

CCCS(=O)(=O)Nc1ccc(F)c(C(=O)c2n[nH]c3ncc(-c4ccccc4Cl)cc23)c1F [Example 9, N-(3-(5-(2-chlorophenyl)-1H-pyrazolo[3,4-b]pyridine-3-carbonyl)-2,4-difluorophenyl)-propane-1-sulfonamide]
IC50 (MEKK2): 1 to 10 µM
Selectivity vs. BRaf, ratio PoC(BRaf)/PoC(MKK4) (BRaf): + (10 > PoC(BRaf)/PoC(MKK4) ≥ 3)
IC50 (MKK4 active): 500 to 1000 nM
IC50 (MKK4-MEKK2 mix): 1 to 10 µM
Selectivity vs. MKK7, ratio PoC(MKK7)/PoC(MKK4) (MKK7): ++ (30 > PoC(MKK7)/PoC(MKK4) ≥ 10)
Selectivity vs. JNK1, ratio PoC(JNK1)/PoC(MKK4) (JNK1): ++ (30 > PoC(JNK1)/PoC(MKK4) ≥ 10)
MKK4, residual percent of control binding (PoC) (MKK4): ++ (1 ≤ PoC < 10)

CCCS(=O)(=O)Nc1ccc(F)c(C(=O)c2n[nH]c3ncc(-c4ccccc4C)cc23)c1F [Example 13, N-(2,4-difluoro-3-(5-o-tolyl-1H-pyrazolo[3,4-b]pyridine-3-carbonyl)-phenyl)propane-1-sulfon-amide]
IC50 (MEKK2): 1 to 10 µM
Selectivity vs. BRaf, ratio PoC(BRaf)/PoC(MKK4) (BRaf): + (10 > PoC(BRaf)/PoC(MKK4) ≥ 3)
IC50 (MKK4 active): < 500 nM
IC50 (MKK4-MEKK2 mix): 1 to 10 µM
Selectivity vs. MKK7, ratio PoC(MKK7)/PoC(MKK4) (MKK7): ++ (30 > PoC(MKK7)/PoC(MKK4) ≥ 10)
Selectivity vs. JNK1, ratio PoC(JNK1)/PoC(MKK4) (JNK1): ++ (30 > PoC(JNK1)/PoC(MKK4) ≥ 10)
MKK4, residual percent of control binding (PoC) (MKK4): ++ (1 ≤ PoC < 10)
